{"source": "patent US20030176351A1", "about": "“Peptides and peptide analogues designed from a diabetes-associated autoantigen, and methods for their use in the treatment and prevention of diabetes” (priority 1999, published 2003)", "key": {"[1]": {"tested_on": "T cells from Patient #6211", "experiment": "γIFN response of serially expanded T cells from Patient #6211 restimulated with GAD65 peptides and autologous APC", "type": "cell-based, human", "settings": "T cells from Patient #6211 expanded in serial culture, autologous APC", "method": "10^5 thawed and irradiated DRB1*0404, DRB1*0405, or control (non-DR4) peripheral blood lymphocytes (PBL) in a volume of 100 μl were added to wells of 96 V-bottom plates containing peptide or medium and allowed to incubate for 2-3 hours at which time 4×10^4 T cells were added for a total volume of 200 μl-250 μl. At 20-24 hours of coculture, supernatants were harvested for cytokine determination and the wells replenished with fresh medium. At 48 hours, wells were radiolabeled with 1 μCi H^3-thymidine and cultured for an additional 18 hr. The plates were harvested on a TomTec Manual Mach III harvester and incorporated thymidine (as cpm) was determined by liquid spectroscopy on a Wallac Microbeta LSC.\nTraditional sandwich ELISA were performed to test the supernatants for human γIFN, using matched antibody sets obtained from Endogen. The plates were read at 405 nm on a Microplate reader (Bio-Tek). The concentration of cytokine was estimated from standard curves using linear regression.\nT cells from Patient #6211 were expanded in serial culture by restimulation with GAD65 peptides incubated with autologous APC. Specific T cell responses were present for both peptides 553-572 (53 pg/ml γIFN) and 555-567 (51 pg/ml γIFN), but not peptide 569-585 (5 pg/ml γIFN), localizing the minimal epitope to the 555-567 region. T cell clones were derived by expansion of this culture; proliferation, and cytokine response profiles for CD4^+ T cell clones BRI.4-10 and BRI.4-11 are shown in FIGS. 1A and 1B."}, "DR4": {"tested_on": "DR4", "settings": "Wicker et al, 1996; cited from earlier work"}, "T cell clone BRI.4-11": {"tested_on": "T cell clone BRI.4-11", "experiment": "prepulse antagonism assay, response to GAD65 555-567, clone BRI.4-11", "type": "cell-based, human"}, "T cell clone BRI.4-10": {"tested_on": "T cell clone BRI.4-10", "experiment": "prepulse antagonism assay, response to GAD65 555-567, clone BRI.4-10", "type": "cell-based, human"}, "DR4 molecules": {"molecular_target": "DR4 molecules (Homo sapiens, UniProt P01903+P01911, A100K/A169T/F76Y/I96L/K127E/L162R/M171V/N62H/P40V/Q125Y/R42H/S133A/S149N/S66Y/V115G/V209L/W38E)", "experiment": "standard DR4-peptide fluorescent binding assay"}}, "note": "Like-named read-outs stand apart in the source and are kept apart here."}
{"molecule": "CC[C@H](C)[C@H](NC(=O)[C@@H](NC(=O)[C@H](CCSC)NC(=O)[C@H](CCCNC(=N)N)NC(=O)[C@H](Cc1ccccc1)NC(=O)[C@H](Cc1ccccc1)NC(=O)[C@@H](N)CC(N)=O)C(C)C)C(=O)N[C@@H](CO)C(=O)N[C@@H](CC(N)=O)C(=O)N1CCC[C@H]1C(=O)N[C@@H](C)C(=O)N[C@@H](C)C(=O)N[C@H](C(=O)O)[C@@H](C)O", "note": "[555-567]", "values": [{"measurement": "γIFN, specific T cell response", "setting": "[1]", "result": 51, "unit": "pg/mL"}]}
{"molecule": "554-566: GAD65 554-566 sequence, DR4-binding peptide of Wicker et al (VNFFRMVISNPAA; UniProt Q05329 554-566, looked up, fragment)", "values": [{"measurement": "DR4 binding avidity among GAD65 peptides", "setting": "DR4", "result": "most avid binding peptide identified"}]}
{"molecule": "553-572: GAD65 peptide of residues 553-572 (KVNFFRMVISNPAATHQDID; UniProt Q05329 553-572, looked up, fragment)", "values": [{"measurement": "γIFN, specific T cell response", "setting": "[1]", "result": 53, "unit": "pg/mL"}]}
{"molecule": "569-585: GAD65 peptide of residues 569-585 (QDIDFLIEEIERLGQDL; UniProt Q05329 569-585, looked up, fragment)", "values": [{"measurement": "γIFN, specific T cell response", "setting": "[1]", "result": 5, "unit": "pg/mL"}]}
{"molecule": "CSCC[C@H](NC(=O)[C@H](CCCNC(=N)N)NC(=O)[C@H](Cc1ccccc1)NC(=O)[C@H](Cc1ccccc1)NC(=O)[C@@H](N)CC(N)=O)C(=O)N[C@H](C(=O)N[C@@H](CC(C)C)C(=O)N[C@@H](CO)C(=O)N[C@@H](CC(N)=O)C(=O)N1CCC[C@H]1C(=O)N[C@@H](C)C(=O)N[C@@H](C)C(=O)N[C@H](C(=O)O)[C@@H](C)O)C(C)C", "note": "[561 L]", "values": [{"measurement": "antagonism of proliferative response (in words)", "setting": "T cell clone BRI.4-11; clone BRI.4-11, highest concentration tested, APC pre-pulsed with agonist peptide", "result": "partially antagonized"}]}
{"molecule": "CSCC[C@H](NC(=O)[C@H](CCCNC(=N)N)NC(=O)[C@H](Cc1ccccc1)NC(=O)[C@H](Cc1ccccc1)NC(=O)[C@@H](N)CC(N)=O)C(=O)N[C@H](C(=O)N[C@@H](CCSC)C(=O)N[C@@H](CO)C(=O)N[C@@H](CC(N)=O)C(=O)N1CCC[C@H]1C(=O)N[C@@H](C)C(=O)N[C@@H](C)C(=O)N[C@H](C(=O)O)[C@@H](C)O)C(C)C", "note": "[561 M]", "values": [{"measurement": "reduction of T cell proliferative response", "setting": "T cell clone BRI.4-10; clone BRI.4-10, APC pre-pulsed with agonist peptide 555-567", "result": 80, "unit": "%"}, {"measurement": "antagonism of γIFN cytokine response (in words)", "setting": "T cell clone BRI.4-10; clone BRI.4-10, APC pre-pulsed with agonist peptide 555-567, FIG. 2B", "result": "similarly antagonized"}, {"measurement": "antagonism of T cell responses (proliferation and γIFN, FIGS. 2C and 2D)", "setting": "T cell clone BRI.4-11; clone BRI.4-11, APC pre-pulsed with agonist peptide 555-567", "result": "more than 90%"}, {"measurement": "IC50", "setting": "DR4 molecules", "result": 400, "unit": "nM"}]}
{"molecule": "VNFFRMVISNPAATHQD [GAD 554-570]", "values": [{"measurement": "IC50", "setting": "DR4 molecules; read-out: peptide binding: concentration of peptide giving 50% inhibition of a standard DR4-peptide fluorescent binding assay", "result": 600, "unit": "nM"}]}
